PubChem BioAssay AID248 (DTP/NCI, 2004)
“And” between values parts separate entries of the source, which are not always exact repeats. Equal values may be shown once. Inconclusive results and toxic doses are left out. Cut-off read from the data, not from the text of the source: active = T/C of 150% or more; inactive = T/C below 125%. Square brackets hold non-standard residues; d marks the D form. Peptide text beside a SMILES is read from it. * marks the point of attachment. Cbz = O=C(OCc1ccccc1)*; Sar = CNCC(=O)O

Test system: L1210 leukemia ip in BDF1 mice, survival T/C
Test: NCI In Vivo Anticancer Drug Screen. Data for tumor model L1210 Leukemia (intraperitoneal) in B6D2F1 (BDF1) mice
Details: endpoint: mean survival time, higher = longer survival
Outline: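 Read-out is survival time, reported as the treated-group measurement over the vehicle-control measurement.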

[1] = dose: 100.0 mg/kg/injection, schedule: Q04DX002 (ip), vehicle: saline with Tween-80
[2] = dose: 100.0 mg/kg/injection, schedule: Q01DX001 (ip), vehicle: carboxymethylcellulose (CMC)
[3] = dose: 200.0 mg/kg/injection, schedule: Q01DX001 (ip), vehicle: carboxymethylcellulose (CMC)
[4] = dose: 400.0 mg/kg/injection, schedule: Q01DX001 (ip), vehicle: carboxymethylcellulose (CMC)
[5] = dose: 100.0 mg/kg/injection, schedule: Q04DX003 (ip), vehicle: saline
[6] = dose: 200.0 mg/kg/injection, schedule: Q04DX003 (ip), vehicle: saline
[7] = dose: 400.0 mg/kg/injection, schedule: Q04DX003 (ip), vehicle: saline
[8] = dose: 100.0 mg/kg/injection, schedule: Q01DX009 (ip), vehicle: saline with Tween-80
[9] = dose: 100.0 mg/kg/injection, schedule: Q04DX003 (ip), vehicle: saline with Tween-80
[10] = dose: 100.0 mg/kg/injection, schedule: Q04DX002 (ip), vehicle: Klucel (hydroxypropylcellulose) (HPC)
[11] = dose: 100.0 mg/kg/injection, schedule: Q04DX002 (ip), vehicle: saline
[12] = dose: 200.0 mg/kg/injection, schedule: Q04DX002 (ip), vehicle: saline
[13] = dose: 400.0 mg/kg/injection, schedule: Q04DX002 (ip), vehicle: saline
[14] = dose: 100.0 mg/kg/injection, schedule: Q01DX009 (ip), vehicle: Klucel (hydroxypropylcellulose) (HPC)
[15] = dose: 100.0 mg/kg/injection, schedule: Q04DX003 (ip), vehicle: Klucel (hydroxypropylcellulose) (HPC)
[16] = dose: 200.0 mg/kg/injection, schedule: Q01DX009 (ip), vehicle: Klucel (hydroxypropylcellulose) (HPC)
[17] = dose: 200.0 mg/kg/injection, schedule: Q04DX003 (ip), vehicle: Klucel (hydroxypropylcellulose) (HPC)
[18] = dose: 400.0 mg/kg/injection, schedule: Q01DX009 (ip), vehicle: Klucel (hydroxypropylcellulose) (HPC)
[19] = dose: 400.0 mg/kg/injection, schedule: Q04DX003 (ip), vehicle: Klucel (hydroxypropylcellulose) (HPC)
[20] = dose: 400.0 mg/kg/injection, schedule: Q04DX003 (ip), vehicle: saline with Tween-80

Measured: T/C

CC#CCCC(=O)OCCCCC
inactive: [1] 97 % of control | dose: 200.0 mg/kg/injection, schedule: Q04DX002 (ip), vehicle: saline with Tween-80 102 % of control

C=CCNC(=O)c1ccccc1
inactive: dose: 25.0 mg/kg/injection, schedule: Q04DX002 (ip), vehicle: saline with Tween-80 97 % of control | dose: 50.0 mg/kg/injection, schedule: Q04DX002 (ip), vehicle: saline with Tween-80 93 % of control | [1] 111 % of control and 91 % of control

CNc1ncnc2c1cnn2C
inactive: dose: 5.0 mg/kg/injection, schedule: Q01DX015 (ip), vehicle: carboxymethylcellulose (CMC) 88 % of control | dose: 10.0 mg/kg/injection, schedule: Q01DX015 (ip), vehicle: carboxymethylcellulose (CMC) 97 % of control | dose: 20.0 mg/kg/injection, schedule: Q01DX015 (ip), vehicle: carboxymethylcellulose (CMC) 100 % of control | dose: 40.0 mg/kg/injection, schedule: Q01DX015 (ip), vehicle: carboxymethylcellulose (CMC) 93 % of control | dose: 80.0 mg/kg/injection, schedule: Q01DX015 (ip), vehicle: carboxymethylcellulose (CMC) 105 % of control | [2] 101 % of control | [3] 103 % of control | [4] 106 % of control

CNCCOC(c1ccccc1)c1ccccc1C (configuration not stated)
inactive: dose: 3.12 mg/kg/injection, schedule: Q01DX009 (ip), vehicle: saline 107 % of control | dose: 5.0 mg/kg/injection, schedule: Q01DX001 (ip), vehicle: saline 103 % of control | dose: 6.25 mg/kg/injection, schedule: Q01DX009 (ip), vehicle: saline 96 % of control | dose: 10.0 mg/kg/injection, schedule: Q01DX001 (ip), vehicle: saline 100 % of control | dose: 12.5 mg/kg/injection, schedule: Q01DX009 (ip), vehicle: saline 101 % of control | dose: 20.0 mg/kg/injection, schedule: Q01DX001 (ip), vehicle: saline 105 % of control | dose: 25.0 mg/kg/injection, schedule: Q01DX009 (ip), vehicle: saline 101 % of control | dose: 25.0 mg/kg/injection, schedule: Q04DX003 (ip), vehicle: saline 94 % of control | dose: 40.0 mg/kg/injection, schedule: Q01DX001 (ip), vehicle: saline 100 % of control | dose: 50.0 mg/kg/injection, schedule: Q01DX009 (ip), vehicle: saline 106 % of control | dose: 50.0 mg/kg/injection, schedule: Q04DX003 (ip), vehicle: saline 108 % of control | dose: 80.0 mg/kg/injection, schedule: Q01DX001 (ip), vehicle: saline 103 % of control

COC(=O)C(C)CC(C)(C=O)OC (configuration not stated)
inactive: [5] 93 % of control | [6] 89 % of control | [7] 89 % of control

CN(C)C(=O)c1cccc(NC(=O)NCc2cccc(N3C(N)=NC(N)=NC3(C)C)c2)c1
inactive: [8] 91 % of control | [9] 97 % of control

O=C(/C=C\c1ccccc1)OCc1ccccc1CN1CCCCC1
inactive: [10] 108 % of control | dose: 200.0 mg/kg/injection, schedule: Q04DX002 (ip), vehicle: Klucel (hydroxypropylcellulose) (HPC) 116 % of control | dose: 400.0 mg/kg/injection, schedule: Q04DX002 (ip), vehicle: Klucel (hydroxypropylcellulose) (HPC) 90 % of control

O=C(COc1cc(Cl)c(Cl)cc1Cl)Nc1ccccc1
inactive: [11] 92 % of control | [12] 100 % of control | [13] 103 % of control

C(CCCCCC1CCCC2CCCCC12)CCCCC1CCCC2CCCCC12 (configuration not stated)
inactive: dose: 100.0 mg/kg/injection, schedule: Q01DX001 (ip), vehicle: saline with Tween-80 98 % of control | dose: 200.0 mg/kg/injection, schedule: Q01DX001 (ip), vehicle: saline with Tween-80 98 % of control | dose: 400.0 mg/kg/injection, schedule: Q01DX001 (ip), vehicle: saline with Tween-80 98 % of control

COC(=O)c1c([N+](=O)[O-])ncn1C1OC(COC(C)=O)C(OC(C)=O)C1OC(C)=O (configuration not stated)
inactive: dose: 100.0 mg/kg/injection, schedule: Q01DX001 (ip), vehicle: saline 102 % of control | dose: 200.0 mg/kg/injection, schedule: Q01DX001 (ip), vehicle: saline 103 % of control | dose: 400.0 mg/kg/injection, schedule: Q01DX001 (ip), vehicle: saline 94 % of control

O=C(Nc1ccc(C(=O)Nc2nccs2)cc1)c1ccc(C(=O)Nc2ccc(C(=O)Nc3nccs3)cc2)c(Cl)c1
inactive: dose: 4.4 mg/kg/injection, schedule: Q01DX Z (ip), vehicle: saline 106 % of control | dose: 6.6 mg/kg/injection, schedule: Q01DX Z (ip), vehicle: saline 97 % of control | dose: 10.0 mg/kg/injection, schedule: Q01DX Z (ip), vehicle: saline 97 % of control | dose: 15.0 mg/kg/injection, schedule: Q01DX Z (ip), vehicle: saline 93 % of control and 97 % of control and 106 % of control | dose: 22.5 mg/kg/injection, schedule: Q01DX Z (ip), vehicle: saline 104 % of control | dose: 30.0 mg/kg/injection, schedule: Q01DX Z (ip), vehicle: saline 100 % of control | dose: 33.75 mg/kg/injection, schedule: Q01DX Z (ip), vehicle: saline 111 % of control | dose: 50.6 mg/kg/injection, schedule: Q01DX Z (ip), vehicle: saline 93 % of control | dose: 60.0 mg/kg/injection, schedule: Q01DX Z (ip), vehicle: saline 97 % of control | dose: 120.0 mg/kg/injection, schedule: Q01DX Z (ip), vehicle: saline 98 % of control and 100 % of control | dose: 180.0 mg/kg/injection, schedule: Q01DX Z (ip), vehicle: saline 93 % of control | dose: 270.0 mg/kg/injection, schedule: Q01DX Z (ip), vehicle: saline 92 % of control | dose: 400.0 mg/kg/injection, schedule: Q01DX Z (ip), vehicle: saline 93 % of control

O=c1[nH]c2cc(F)ccc2o1
inactive: [14] 103 % of control | [15] 104 % of control | [16] 101 % of control | [17] 103 % of control | [18] 111 % of control | [19] 111 % of control

COC(=O)CN(C)C(=O)CNC(=O)OCc1ccccc1 (Cbz-Gly-[Sar]-OMe)
inactive: [5] 97 % of control | [6] 90 % of control | [7] 100 % of control

O=P(Oc1ccccc1)(Oc1ccccc1)C(Nc1ccccc1)c1ccccc1 (configuration not stated)
inactive: [20] 90 % of control

C/C=C/C=C\COC(=O)C(C)C
inactive: [11] 103 % of control | [12] 96 % of control | [13] 114 % of control

C=CCNC(=S)NCc1ccc(Cl)cc1
inactive: dose: 25.0 mg/kg/injection, schedule: Q01DX009 (ip), vehicle: Klucel (hydroxypropylcellulose) (HPC) 100 % of control | dose: 50.0 mg/kg/injection, schedule: Q01DX009 (ip), vehicle: Klucel (hydroxypropylcellulose) (HPC) 102 % of control | [14] 94 % of control | [10] 111 % of control

COc1ccc(CN2CCCN(Cc3ccc(OC)cc3OC)C2c2ccccc2OC)c(OC)c1
inactive: dose: 50.0 mg/kg/injection, schedule: Q01DX001 (ip), vehicle: carboxymethylcellulose (CMC) 101 % of control | [2] 93 % of control | [3] 93 % of control | [4] 101 % of control

CC(C)(C)C(=O)CC(=O)C(C)(C)C.CC(C)(C)C(=O)CC(=O)C(C)(C)C.CC(C)(C)C(=O)CC(=O)C(C)(C)C.CC(C)(C)C(=O)CC(=O)C(C)(C)C.[Zr]
inactive: [14] 96 % of control | [15] 94 % of control | [16] 97 % of control | [17] 89 % of control | [18] 96 % of control | [19] 101 % of control

CCOC(=O)CNC(=O)OCCSc1ccc(C)cc1
inactive: [8] 97 % of control | dose: 200.0 mg/kg/injection, schedule: Q01DX009 (ip), vehicle: saline with Tween-80 93 % of control

O=C1/C(=C\c2ccc(OCc3ccccc3)cc2)N2CCC1CC2
inactive: [9] 97 % of control | dose: 200.0 mg/kg/injection, schedule: Q04DX003 (ip), vehicle: saline with Tween-80 95 % of control | [20] 87 % of control
